Laboratory results reported in PubChem BioAssay (NCI).
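Exposure lasted 48 hours, with cells grown in 96-well plates and compounds tested at five concentrations. Here, GI50 denotes the concentration required for 50% inhibition of growth. TGI marks complete inhibition of growth.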

What was measured:
Assay in all cases: DTP human tumour cell line panel, 48 h
U251 CNS = system: U251 CNS
TK-10 renal = system: TK-10 renal
MALME-3M melanoma = system: MALME-3M melanoma
SK-MEL-5 melanoma = system: SK-MEL-5 melanoma
UACC-62 melanoma = system: UACC-62 melanoma
ACHN renal = system: ACHN renal
COLO 205 colon = system: COLO 205 colon
RXF 393 renal = system: RXF 393 renal
SNB-19 CNS = system: SNB-19 CNS
MCF7 breast = system: MCF7 breast

Compound	TGI (U251 CNS)	TGI (TK-10 renal)	TGI (MALME-3M melanoma)	TGI (SK-MEL-5 melanoma)	TGI (UACC-62 melanoma)	TGI (ACHN renal)	TGI (COLO 205 colon)	TGI (RXF 393 renal)	TGI (SNB-19 CNS)	GI50 (U251 CNS)	GI50 (TK-10 renal)	GI50 (MALME-3M melanoma)	GI50 (SK-MEL-5 melanoma)	GI50 (UACC-62 melanoma)	GI50 (ACHN renal)	GI50 (COLO 205 colon)	GI50 (SNB-19 CNS)	TGI (MCF7 breast)	GI50 (MCF7 breast)	GI50 (RXF 393 renal)
O=C(O)CCNCCCCNCCC(=O)O	> 100 µM	> 100 µM	> 100 µM	> 100 µM	> 100 µM	> 100 µM	> 100 µM	> 100 µM	> 100 µM	–	–	–	–	–	–	–	–	–	–	–
N.N.N.N.N.O=[N+]([O-])[O-].[Co+3].[O-][Cl+3]([O-])([O-])[O-]	> 100 µM	> 100 µM	> 100 µM	> 100 µM	> 100 µM	> 100 µM	> 100 µM	–	> 100 µM	> 100 µM	> 100 µM	> 100 µM	> 100 µM	> 100 µM	> 100 µM	> 100 µM	> 100 µM	–	–	–
COC(=O)CC(NC(=O)OCc1ccccc1)C(C(=O)OCc1ccccc1)C(C)(OC)OC (centres undefined)	> 100 µM	> 100 µM	80.9 µM	26.7 µM	42.3 µM	> 100 µM	34.1 µM	96.9 µM	> 100 µM	–	–	–	–	–	–	–	–	–	–	–
CCOC(=O)N1CCc2cc(OC)c(OC)cc2/C1=C\c1ccc(OC)c(OC)c1	92.9 µM	73.9 µM	57.1 µM	–	63.4 µM	94 µM	59.9 µM	54.2 µM	> 100 µM	–	–	–	–	–	–	–	–	–	–	–
CCOC(=O)CCn1ncc(Cl)c(Cl)c1=O	17.1 µM	34.5 µM	34.4 µM	25.3 µM	19.2 µM	33.7 µM	25.6 µM	29 µM	26.7 µM	–	–	–	–	–	–	–	–	–	–	–
c1ccc2c(c1)SCCCSCCSCCCS2	> 100 µM	> 100 µM	–	> 100 µM	> 100 µM	–	> 100 µM	–	> 100 µM	–	–	–	–	–	–	–	–	> 100 µM	–	–
CC1CCSC(N(C(=O)N(C)c2ccccc2)c2ccccc2)=N1 (centres undefined)	> 100 µM	> 100 µM	> 100 µM	> 100 µM	> 100 µM	> 100 µM	> 100 µM	> 100 µM	> 100 µM	–	–	–	–	–	–	–	–	–	–	–
Cc1c(NC(=S)NC(=O)c2ccc([N+](=O)[O-])cc2)c(=O)n(-c2ccccc2)n1C	> 100 µM	> 100 µM	> 100 µM	> 100 µM	> 100 µM	> 100 µM	> 100 µM	> 100 µM	> 100 µM	–	–	–	–	–	–	–	–	–	–	–
c1ccc2c(-c3nc(-c4c[nH]c5ccncc45)cs3)c[nH]c2c1	3.58 µM	4.74 µM	3.13 µM	2.99 µM	3.33 µM	3.36 µM	–	3.03 µM	5.12 µM	1.93 µM	2.76 µM	1.65 µM	1.6 µM	1.67 µM	1.72 µM	–	2.18 µM	3.16 µM	1.43 µM	1.55 µM
COc1ccc(/C(Cl)=C/c2cc(OC)ccc2OC)cc1	> 100 µM	–	> 100 µM	> 100 µM	> 100 µM	> 100 µM	> 100 µM	69.6 µM	> 100 µM	–	–	–	–	–	–	–	–	–	–	–
NNC(=O)C(=O)N/N=C1\CCC(=O)CC1C(=O)CCC(=O)Nc1ccc(Cl)cc1 (centres undefined)	> 100 µM	> 100 µM	> 100 µM	> 100 µM	> 100 µM	> 100 µM	> 100 µM	> 100 µM	> 100 µM	–	–	–	–	–	–	–	–	–	–	–
Cc1cc(N(CCC#N)CCC#N)ccc1N=Nc1ccc(Br)cc1	> 53 µM	39.8 µM	> 100 µM	27.8 µM	> 87.2 µM	> 42.2 µM	> 100 µM	25.8 µM	> 57.6 µM	–	–	–	–	–	–	–	–	–	–	–
COc1ncnc(S(=O)(=O)c2ccc(N=C3C(=O)N(CN4CCN(c5cc6c(cc5F)c(=O)c(C(=O)O)cn6C5CC5)CC4)c4ccc(Cl)cc43)cc2)c1OC	> 50 µM	36.7 µM	–	> 50 µM	> 50 µM	> 50 µM	> 50 µM	> 50 µM	> 50 µM	18.7 µM	8.78 µM	–	19.7 µM	8.75 µM	10.2 µM	> 50 µM	> 50 µM	> 50 µM	34.1 µM	> 50 µM
CC(C)CCCC(C)[C@H]1CCC2[C@@H]3CCC4Nc5c(cnn5-c5ccccc5)C[C@]4(C)C3CC[C@@]21C (some centres undefined)	> 100 µM	> 100 µM	> 100 µM	> 100 µM	40.4 µM	> 100 µM	42 µM	8.8 µM	63.1 µM	–	–	–	–	–	–	–	–	–	–	–
Cc1ccc(S(=O)(=O)c2ccccc2[N+](=O)[O-])cc1	> 100 µM	> 100 µM	> 100 µM	> 100 µM	> 100 µM	> 100 µM	–	> 100 µM	–	–	–	–	–	–	–	–	–	–	–	–
COc1ccc(CCc2cc(OC)cc(OC)c2)cc1	> 100 µM	> 100 µM	> 83.7 µM	> 87 µM	> 100 µM	> 100 µM	> 60.5 µM	63.8 µM	> 100 µM	–	–	–	–	–	–	–	–	–	–	–
CC(C)(C)C(=CS(=O)/N=C/c1ccccc1)C(C)(C)C (centres undefined)	84.7 µM	> 100 µM	75.9 µM	73 µM	–	> 100 µM	> 100 µM	74.5 µM	> 100 µM	–	–	–	–	–	–	–	–	–	–	–
CC(C)(C)OC(=O)NCCCn1c2c(c3ccccc3c1=O)C(=O)c1ccccc1-2	28.3 µM	63 µM	> 100 µM	> 100 µM	53.6 µM	67.9 µM	> 100 µM	–	29.6 µM	11.5 µM	22.3 µM	32.9 µM	35.2 µM	20.4 µM	14.3 µM	> 100 µM	12.1 µM	39.4 µM	15 µM	–
C[Si](C)(C)/C=C\CCO	> 100 µM	> 100 µM	> 100 µM	> 100 µM	> 100 µM	> 100 µM	> 100 µM	> 100 µM	> 100 µM	–	–	–	–	–	–	–	–	–	–	–
O=C(Nc1ccc(-c2nc(-c3cccc(OCCN4CCOCC4)c3)c(-c3ccnc(Br)c3)[nH]2)cc1)c1ccccc1	–	> 100 µM	3.85 µM	3.21 µM	6.19 µM	> 100 µM	–	1.12 µM	9.07 µM	–	4.48 µM	1.55 µM	1.77 µM	1.91 µM	3.55 µM	–	2.19 µM	3.14 µM	0.74 µM	0.309 µM
